In PMC9698340, “Discovery and SAR Study of Quinoxaline–Arylfuran Derivatives as a New Class of Antitumor Agents” (Pharmaceutics, 2022):

Tests used:
Format in all cases: cell-based
[1] = system: HCT116 cells; experiment: CCK-8 antiproliferation assay, HCT116; details: Homo sapiens, HCT-116; 20 μM, 48 h, CCK-8, mean ± SD; read-out: Inhibition Rate (%) at 20 μM, HCT116
Description: (§1) Human lung carcinoma cell lines A549, human cervical cancer cell lines HeLa, human prostate cancer cell lines PC3, human colorectal carcinoma cell lines HCT116, and human liver cells L02 were purchased from the Chinese Academy of Sciences Shanghai Cell Bank (Shanghai, China). HeLa, A549, PC3, HCT116, and L02 cells were cultured in DMEM Dulbecco’s Modified Eagle Medium (DMEM; Gibco Inc., Gaithersburg, MD, USA). All cultures were provided with 10% fetal bovine serum (FBS; YHSM, Beijing, China), 100 IU/mL penicillin, and 100 μg/mL streptomycin, and cells were incubated at 37 °C in an atmosphere of 5% CO2.
(§2) Cell viability was determined using a CCK-8 kit (Apexbio, Houston, TX, USA). […] Subsequently, absorbance was assessed at 450 nm. Three duplicates were set in each group.
(§3) All synthesized quinoxalines compounds were tested for in vitro cytotoxicity against four cancer cell lines (HeLa, PC3, A549, and HCT116). The inhibitory effects of these compounds were evaluated using the CCK-8 assay after treatment with 20 μM of each compound. […] The species of phenyl substituents have a significant effect on the activity. […] By comparison, hydrophobic substitution at the phenyl ring gave derivatives with relatively low potency (QW7–8). In addition, large substituents on the phenyl ring exerted an unfavorable influence on the potency of the compounds (QW8 and QW16).

[2] = system: A549 cells; experiment: CCK-8 antiproliferation assay, A549; details: Homo sapiens, 20 μM, 48 h, CCK-8, mean ± SD, read-out: Inhibition Rate (%) at 20 μM, A549
Description: as §1, §2, §3

[3] = system: PC3 cells; experiment: CCK-8 antiproliferation assay, PC3; details: Homo sapiens, PC-3; 20 μM, 48 h, CCK-8, mean ± SD; read-out: Inhibition Rate (%) at 20 μM, PC3
Description: as §1, §2, §3

[4] = system: HeLa cells; experiment: CCK-8 antiproliferation assay, HeLa; details: Homo sapiens; 20 μM, 48 h, CCK-8, mean ± SD; read-out: Inhibition Rate (%) at 20 μM, HeLa
Description: as §1, §2, §3

Compound | inhibition at 20 µM [1] [%] | inhibition at 20 µM [2] [%] | inhibition at 20 µM [3] [%] | inhibition at 20 µM [4] [%]
COc1cc(-c2cc(OC)c3ccccc3c2OC)c(OC)cc1-c1ccc(/C=N/NC(=O)c2ccc(F)cc2)o1 [QW17, (E)-N’-((5-(4-(1,4-dimethoxynaphthalen-2-yl)-2,5-dimethoxyphenyl)furan-2-yl)methylene)-4-fluorobenzohydrazide] | 4.69 ± 0.5 | 0.44 ± 0.16 | 11.7 ± 0.66 | 6.49 ± 0.17
COc1cc(-c2cc(OC)c3ccccc3c2OC)c(OC)cc1-c1ccc(/C=N/NC(=O)c2ccccc2)o1 [QW18, (E)-N’-((5-(4-(1,4-dimethoxynaphthalen-2-yl)-2,5-dimethoxyphenyl)furan-2-yl)methylene)benzohydrazide] | 10.9 ± 0.46 | 8.82 ± 0.08 | 8.09 ± 0.13 | 4.3 ± 0.45
COc1cc(-c2ccc(/C=N/NC(=O)c3ccccc3)o2)c(OC)cc1-c1ccc2nccnc2c1 [QW10, (E)-N’-((5-(2,5-dimethoxy-4-(quinoxalin-6-yl)phenyl)furan-2-yl)methylene)benzohydrazide] | 10.9 ± 0.46 | 8.82 ± 0.08 | 8.09 ± 0.13 | 4.3 ± 0.45
COc1cc(-c2ccc(/C=N/NC(=O)c3cccc(C)c3)o2)c(OC)cc1-c1ccc2nccnc2c1 [QW15, (E)-N’-((5-(2,5-dimethoxy-4-(quinoxalin-6-yl)phenyl)furan-2-yl)methylene)-3-methylbenzohydrazide] | 18.8 ± 0.54 | 9.44 ± 0.39 | 13.77 ± 0.12 | 14.26 ± 0.12
COc1cc(-c2ccc(/C=N/NC(=O)c3cccnc3)o2)c(OC)cc1-c1ccc2nccnc2c1 [QW11, (E)-N’-((5-(2,5-dimethoxy-4-(quinoxalin-6-yl)phenyl)furan-2-yl)methylene)nicotinohydrazide] | 39.9 ± 0.68 | 17.27 ± 0.03 | 29.35 ± 0.18 | 45.5 ± 0.61
COc1cc(-c2ccc(/C=N/NC(=O)c3ccncc3)o2)c(OC)cc1-c1cnc2ccccc2n1 [QW5, (E)-N’-((5-(2,5-dimethoxy-4-(quinoxalin-2-yl)phenyl)furan-2-yl)methylene)isonicotinohydrazide] | 30.6 ± 0.51 | 18.52 ± 0.18 | 26 ± 0.37 | 31.13 ± 0.23
COc1cc(-c2ccc(/C=N/NC(=O)c3ccc(F)cc3)o2)c(OC)cc1-c1cnc2ccccc2n1 [QW1, (E)-N’-((5-(2,5-dimethoxy-4-(quinoxalin-2-yl)phenyl)furan-2-yl)methylene)-4-fluorobenzohydrazide] | 15.33 ± 0.14 | 7.47 ± 0.52 | 5.13 ± 0.59 | 5.14 ± 0.13
COc1cc(-c2ccc(/C=N/NC(=O)c3ccccn3)o2)c(OC)cc1-c1cnc2ccccc2n1 [QW6, (E)-N’-((5-(2,5-dimethoxy-4-(quinoxalin-2-yl)phenyl)furan-2-yl)methylene)picolinohydrazide] | 16.5 ± 0.25 | 1.66 ± 0.61 | 0.1 ± 0.13 | 0.53 ± 0.12
COc1cc(-c2cc(OC)c3ccccc3c2OC)c(OC)cc1-c1ccc(/C=N/NC(=O)c2cccc(C)c2)o1 [QW23, (E)-N’-((5-(4-(1,4-dimethoxynaphthalen-2-yl)-2,5-dimethoxyphenyl)furan-2-yl)methylene)-3-methylbenzohydrazide] | 2.26 ± 0.03 | 1.87 ± 0.33 | 2.99 ± 0.25 | 0.84 ± 0.64
COc1cc(-c2cc(OC)c3ccccc3c2OC)c(OC)cc1-c1ccc(/C=N/NC(=O)c2ccccn2)o1 [QW22, (E)-N’-((5-(4-(1,4-dimethoxynaphthalen-2-yl)-2,5-dimethoxyphenyl)furan-2-yl)methylene)picolinohydrazide] | 6.58 ± 0.23 | 37.5 ± 0.48 | 0.33 ± 0.06 | 5.47 ± 0.37
COc1cc(-c2cc(OC)c3ccccc3c2OC)c(OC)cc1-c1ccc(/C=N/NC(=O)c2ccncc2)o1 [QW21, (E)-N’-((5-(4-(1,4-dimethoxynaphthalen-2-yl)-2,5-dimethoxyphenyl)furan-2-yl)methylene)isonicotinohydrazide] | 4.46 ± 0.24 | 0.68 ± 0.36 | 0.12 ± 0.2 | 0.36 ± 0.6
COc1cc(-c2ccc(/C=N/NC(=O)c3ccc(-c4ccccc4)cc3)o2)c(OC)cc1-c1cnc2ccccc2n1 [QW8, (E)-N’-((5-(2,5-dimethoxy-4-(quinoxalin-2-yl)phenyl)furan-2-yl)methylene)-[1,1’-biphenyl]-4-carbohydrazide] | 20.92 ± 0.05 | 5.8 ± 0.02 | 11.8 ± 0.56 | 3.46 ± 0.17
COc1cc(-c2ccc(/C=N/NC(=O)c3ccccn3)o2)c(OC)cc1-c1ccc2nccnc2c1 [QW14, (E)-N’-((5-(2,5-dimethoxy-4-(quinoxalin-6-yl)phenyl)furan-2-yl)methylene)picolinohydrazide] | 30.5 ± 0.55 | 5.46 ± 0.7 | 12.9 ± 0.31 | 8.67 ± 0.24
COc1cc(-c2cc(OC)c3ccccc3c2OC)c(OC)cc1-c1ccc(/C=N/NC(=O)c2cccnc2)o1 [QW19, (E)-N’-((5-(4-(1,4-dimethoxynaphthalen-2-yl)-2,5-dimethoxyphenyl)furan-2-yl)methylene)nicotinohydrazide] | 4.61 ± 0.66 | 0.15 ± 0.35 | 8.37 ± 0.21 | 9.56 ± 0.65
COc1cc(-c2ccc(/C=N/NC(=O)c3ccccc3)o2)c(OC)cc1-c1cnc2ccccc2n1 [QW2, (E)-N’-((5-(2,5-dimethoxy-4-(quinoxalin-2-yl)phenyl)furan-2-yl)methylene)benzohydrazide] | 17.8 ± 0.67 | 6.46 ± 0.43 | 1.76 ± 0.23 | 8.64 ± 0.26
COc1cc(-c2ccc(/C=N/NC(=O)c3ccc(-c4ccccc4)cc3)o2)c(OC)cc1-c1ccc2nccnc2c1 [QW16, (E)-N’-((5-(2,5-dimethoxy-4-(quinoxalin-6-yl)phenyl)furan-2-yl)methylene)-[1,1’-biphenyl]-4-carbohydrazide] | 41.48 ± 0.05 | 4.12 ± 0.33 | 9.37 ± 0.09 | 10.93 ± 0.04
COc1cc(-c2cc(OC)c3ccccc3c2OC)c(OC)cc1-c1ccc(/C=N/NC(=O)c2ccc(O)cc2)o1 [QW20, (E)-N’-((5-(4-(1,4-dimethoxynaphthalen-2-yl)-2,5-dimethoxyphenyl)furan-2-yl)methylene)-4-hydroxybenzohydrazide] | 48.5 ± 0.01 | 18.73 ± 0.1 | 15.6 ± 0.19 | 22.5 ± 0.25
COc1cc(-c2ccc(/C=N/NC(=O)c3cccnc3)o2)c(OC)cc1-c1cnc2ccccc2n1 [QW3, (E)-N’-((5-(2,5-dimethoxy-4-(quinoxalin-2-yl)phenyl)furan-2-yl)methylene)nicotinohydrazide] | 33.8 ± 0.41 | 11.63 ± 0.03 | 32.6 ± 0.65 | 38.81 ± 0.3
COc1cc(-c2cc(OC)c3ccccc3c2OC)c(OC)cc1-c1ccc(/C=N/NC(=O)c2ccc(-c3ccccc3)cc2)o1 [QW24, (E)-N’-((5-(4-(1,4-dimethoxynaphthalen-2-yl)-2,5-dimethoxyphenyl)furan-2-yl)methylene)-[1,1’-biphenyl]-4-carbohydrazide] | 4.39 ± 0.52 | 6 ± 0.1 | 2.4 ± 0.07 | 4.96 ± 0.61
COc1cc(-c2ccc(/C=N/NC(=O)c3ccc(F)cc3)o2)c(OC)cc1-c1ccc2nccnc2c1 [QW9, (E)-N’-((5-(2,5-dimethoxy-4-(quinoxalin-6-yl)phenyl)furan-2-yl)methylene)-4-fluorobenzohydrazide] | 29.9 ± 0.57 | 1.16 ± 0.63 | 3.98 ± 0.49 | 17.1 ± 0.41
COc1cc(-c2ccc(/C=N/NC(=O)c3ccncc3)o2)c(OC)cc1-c1ccc2nccnc2c1 [QW13, (E)-N’-((5-(2,5-dimethoxy-4-(quinoxalin-6-yl)phenyl)furan-2-yl)methylene)isonicotinohydrazide] | 23.2 ± 0.27 | 3.96 ± 0.59 | 18.5 ± 0.3 | 37.71 ± 0.12
COc1cc(-c2ccc(/C=N/NC(=O)c3cccc(C)c3)o2)c(OC)cc1-c1cnc2ccccc2n1 [QW7, (E)-N’-((5-(2,5-dimethoxy-4-(quinoxalin-2-yl)phenyl)furan-2-yl)methylene)-3-methylbenzohydrazide] | 2.18 ± 0.38 | 4.31 ± 0.08 | 4.73 ± 0.01 | 8.46 ± 0.42
COc1cc(-c2ccc(/C=N/NC(=O)c3ccc(O)cc3)o2)c(OC)cc1-c1cnc2ccccc2n1 [QW4, (E)-N’-((5-(2,5-dimethoxy-4-(quinoxalin-2-yl)phenyl)furan-2-yl)methylene)-4-hydroxybenzohydrazide] | 30.7 ± 0.04 | 25.5 ± 0.62 | 38.74 ± 0.2 | 44.29 ± 0.05
